Source: PubChem BioAssay AID1963838 (Molecular Pharmacology Branch, DTP, NCI, 2024)
pIC50: −log10 of the molar value.

System: 855422-203-R-J1-PDC complex spheroid viability
Test: Anticancer human tumor 855422-203-R-J1-PDC patient-derived bladder carcinoma cell line growth inhibition [POLQ]
Details: for pIC50: curve of first compound; for viability, T/C: stronger effect = lower value
How it was run: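 Growth inhibition in 3D: complex spheroids (tumor PDC, HUVEC, MSC) treated with POLQ inhibitor combinations; where Cmax unknown, highest tested concentration 10 microM, except SN-38 at 1 microM.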

[1] = second compound 0.0316 µM, first compound 0.0316 µM
[2] = second compound 0.0316 µM, first compound 0.1 µM
[3] = second compound 0.0316 µM, first compound 0.316 µM
[4] = second compound 0.0316 µM, first compound 1 µM
[5] = second compound 0.0316 µM, first compound 3.16 µM
[6] = second compound 0.0316 µM, first compound 10 µM
[7] = second compound 0.1 µM, first compound 0.0316 µM
[8] = second compound 0.1 µM, first compound 0.1 µM
[9] = second compound 0.1 µM, first compound 0.316 µM
[10] = second compound 0.1 µM, first compound 1 µM
[11] = second compound 0.1 µM, first compound 3.16 µM
[12] = second compound 0.1 µM, first compound 10 µM
[13] = second compound 0.316 µM, first compound 0.0316 µM
[14] = second compound 0.316 µM, first compound 0.1 µM
[15] = second compound 0.316 µM, first compound 0.316 µM
[16] = second compound 0.316 µM, first compound 1 µM
[17] = second compound 0.316 µM, first compound 3.16 µM
[18] = second compound 0.316 µM, first compound 10 µM
[19] = second compound 1 µM, first compound 0.0316 µM
[20] = second compound 1 µM, first compound 0.1 µM
[21] = second compound 1 µM, first compound 0.316 µM
[22] = second compound 1 µM, first compound 1 µM
[23] = second compound 1 µM, first compound 3.16 µM
[24] = second compound 1 µM, first compound 10 µM
[25] = second compound 3.16 µM, first compound 0.0316 µM
[26] = second compound 3.16 µM, first compound 0.1 µM
[27] = second compound 3.16 µM, first compound 0.316 µM
[28] = second compound 3.16 µM, first compound 1 µM
[29] = second compound 3.16 µM, first compound 3.16 µM
[30] = second compound 3.16 µM, first compound 10 µM
[31] = second compound 10 µM, first compound 0.0316 µM
[32] = second compound 10 µM, first compound 0.1 µM
[33] = second compound 10 µM, first compound 0.316 µM
[34] = second compound 10 µM, first compound 1 µM
[35] = second compound 10 µM, first compound 3.16 µM
[36] = second compound 10 µM, first compound 10 µM
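Note: spheroids exposed to compounds for seven days before readout.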

CC(C)n1c(=O)n(C)c2cnc3cc(F)c(-c4ccc(OCCCN5CCCCC5)nc4)cc3c21 + COC1C(OC(N)=O)C(O)C(Oc2ccc3c(O)c(NC(=O)c4ccc(O)c(CC=C(C)C)c4)c(=O)oc3c2C)OC1(C)C gave a pIC50 (second compound 0.0316 µM) of under 5.00, a pIC50 (second compound 0.1 µM) of under 5.00 and a pIC50 (second compound 0.316 µM) of under 5.00. It also gave a pIC50 (second compound 1 µM) of under 5.00, a pIC50 (second compound 3.16 µM) of under 5.00 and a pIC50 (second compound 10 µM) of under 5.00. For the same molecule, the viability, T/C [1] was 97.6%, the viability, T/C [2] was 92.7% and the viability, T/C [3] was 89.8%. It also gave a viability, T/C [4] of 89.1%, a viability, T/C [5] of 84.7% and a viability, T/C [6] of 70.3%. For the same molecule, the viability, T/C [7] was 84.4%, the viability, T/C [8] was 110% and the viability, T/C [9] was 88.1%. The viability, T/C [10] was 91.9%, the viability, T/C [11] was 79.6% and the viability, T/C [12] was 75.3%. For the same molecule, the viability, T/C [13] was 92.6%, the viability, T/C [14] was 100% and the viability, T/C [15] was 89.8%. It also gave a viability, T/C [16] of 102%, a viability, T/C [17] of 87.8% and a viability, T/C [18] of 65.9%. The viability, T/C [19] was 104%, the viability, T/C [20] was 104% and the viability, T/C [21] was 96.2%. The viability, T/C [22] was 98.1%, the viability, T/C [23] was 81.2% and the viability, T/C [24] was 74%. The viability, T/C [25] was 106%, the viability, T/C [26] was 95% and the viability, T/C [27] was 98.2%. It also gave a viability, T/C [28] of 79.1%, a viability, T/C [29] of 83.5% and a viability, T/C [30] of 69.7%. The viability, T/C [31] was 104%, the viability, T/C [32] was 92.5% and the viability, T/C [33] was 93.9%. It also gave a viability, T/C [34] of 98.1%, a viability, T/C [35] of 83% and a viability, T/C [36] of 68.7%.

With Nc1ccn(C2OC(CO)C(O)C2(F)F)c(=O)n1 (centres undefined) + Nc1ccc(C#CCN(C(=O)Cc2ncc(C(F)(F)F)cc2C(F)(F)F)c2ccc(F)cc2)nn1 the pIC50 (second compound 0.0316 µM) was 7.21, the pIC50 (second compound 0.1 µM) was 7.20 and the pIC50 (second compound 0.316 µM) was 7.08. It also gave a pIC50 (second compound 1 µM) of 7.04, a pIC50 (second compound 3.16 µM) of 6.68 and a pIC50 (second compound 10 µM) of 6.35. It also gave a viability, T/C [1] of 93.6%, a viability, T/C [2] of 18.9% and a viability, T/C [3] of 17.6%. For the same molecule, the viability, T/C [4] was 13.8%, the viability, T/C [5] was 11% and the viability, T/C [6] was 6.83%. For the same molecule, the viability, T/C [7] was 99.3%, the viability, T/C [8] was 15.9% and the viability, T/C [9] was 18.2%. For the same molecule, the viability, T/C [10] was 14.1%, the viability, T/C [11] was 12.3% and the viability, T/C [12] was 9.34%. The viability, T/C [13] was 148%, the viability, T/C [14] was 29.9% and the viability, T/C [15] was 16%. It also gave a viability, T/C [16] of 18.6%, a viability, T/C [17] of 11.3% and a viability, T/C [18] of 8.21%. For the same molecule, the viability, T/C [19] was 136%, the viability, T/C [20] was 42.2% and the viability, T/C [21] was 16.8%. The viability, T/C [22] was 14.5%, the viability, T/C [23] was 11.3% and the viability, T/C [24] was 10.8%. It also gave a viability, T/C [25] of 118%, a viability, T/C [26] of 103% and a viability, T/C [27] of 19.4%. The viability, T/C [28] was 16.3%, the viability, T/C [29] was 14.8% and the viability, T/C [30] was 11.8%. The viability, T/C [31] was 105%, the viability, T/C [32] was 210% and the viability, T/C [33] was 63.6%. For the same molecule, the viability, T/C [34] was 23%, the viability, T/C [35] was 18.2% and the viability, T/C [36] was 14.1%.
